Measured values from US20050272808A1, “Compositions and methods for the treatment of hypertension” (priority 2004, published 2005).

Assays:
[1] = tested on: Spontaneously Hypertensive Rats (SHR); assay: Systemic blood pressure of anesthetized Spontaneously Hypertensive Rats (i.v. bolus or p.o. intra stomach); assay type: in vivo, rat
Description: Spontaneously Hypertensive Rats, (Harlan USA) 290-330 gr weight, were anaesthetized with 100-120 mg/kg Inactin in one single bolus injection i.p. The chest was shaven, and animal was secured in supine position. Anaesthetized rats were subject to tracheotomy with 18G catheter. The left femoral vein was cannulated for drug administration and infusion.
For measurement of hemodynamic parameters a cannula was inserted retrogradely into the left carotid artery. The tip of the catheter was positioned close to the origin of the subclavian artery. The catheter was connected to a blood pressure measurement system (BioPac MP100 workstation, BioPac System inc.). ECG was recorded by BioPac MP100 workstation. The information was saved electronically.
During the experiment 1 ml/h of Hartmann's solution was infused i.v.
Alternatively an 80-125 mg/Kg of MCT-based formulation was injected p.o. intra stomach.

[2] = tested on: Cat iris sphincter smooth muscle (SV-CISM-2) cells; assay: cGMP assay (RIA) in cultured smooth muscle cells in presence of IBMX; assay type: cell-based; details: for cGMP formed % of control / cGMP formed: IBMX present; for cGMP formed: mean±SEM
Description: Cat iris sphincter smooth muscle (SV-CISM-2) cells were maintained in Dulbecco's modified Eagle medium (DMEM), supplemented with 10% fetal calf serum (FCS) and 50 μg/ml gentamicin (culture medium) as described by Ding et al. 1999. (Life Sci. Vol: 64 pp. 161-174) To initiate subculture, confluent SV-CISM-2 cells were washed with Ca^2+-Mg^2+ free Dulbecco's phosphate buffered salt solution (PBS) and treated with 0.05% trypsin in 0.5 mM EDTA for 3 minutes at 37° C. This was followed by addition of culture medium, and the cell suspension was centrifuged at 200 g for 5 minutes. The pelleted cells were suspended in culture medium and seeded in 6-well plates for the cGMP assay. Confluent cells, in 6-well plates were washed once with DMEM and incubated in 2 ml DMEM for 15 minutes at 37° C. IBMX (0.1 mM) was added and incubated for additional 10 minutes. The tested agent was then added and incubations continued for 10 minutes. Anantin (1 μM) or L-NAME (0.1 mM) were added along with IBMX, 10 minutes prior to addition of the tested compound. Reactions were stopped by replacing the medium with 1 ml ice-cold 5% trichloroacetic acid (TCA) (W/V). The obtained samples were homogenized, centrifuged and the supernatants were extracted with anhydrous diethylether. A 100 μl portion of the supernatant from each sample was taken; and after appropriate dilutions cGMP was assayed by radioimmunoassay RIA as described by the aforementioned Ding et al. 1999. Protein content was determinate by the method of Lowry with bovine serum albumin as standard as described in the aforementioned Ding et al. 1999. The data are presented as mean±SEM of three separate experiments with triplicate incubations for each data point.

[3] = tested on: cultured SV40 transformed cat iris sphincter smooth muscle (SV-CISM-2); details: WO 01/39766, cited from earlier work; for elevation of cGMP levels in vitro: SV-CISM-2 cells; for ability to elevate cGMP levels in cultured smooth muscle cells: comparison of the two compounds
[4] = tested on: Male Sprague-Dawley rats; assay: Systemic blood pressure and ECG of normotensive anesthetized rats, i.v. bolus injection; assay type: in vivo
Description: Male Sprague-Dawley rats, weighing 250-350 grams were anaesthetized with mixture of Ketamine (90 mg/Kg body weight) and Xylazine (10 mg/Kg body weight) in a single bolus injection. The rats' chest was shaven; and the rats were secured in supine position. Anaesthetized rats were intubated with 18G catheter, connected to a ventilator [Harvard Apparatus] and ventilated with a room air (volume: 2 ml, rate: 70 per min). The left femoral vein was cannulated for drug administration, which is standardized to injections of 0.2 ml/100 grams body weight over a period of 0.5-1 minutes.
For measurement of hemodynamic parameters [blood pressure (BP), heart rate (HR)] a cannula was inserted retrogradely into the left carotid artery. The tip of the catheter was positioned close to the origin of the subclavian artery.
For continuous monitoring of blood pressure (systolic and diastolic pressure) and heart rate, the catheter was connected to a pressure transducer [Grass instrument co., Quincy, Mass. USA]. To monitor the ECG (electrocardiogram): two electrodes were connected to the animal's arms and one electrode was connected to its left leg. The monitoring system was calibrated at the beginning of each experiment. Recording all the steps of the calibration. ECG and hemodynamic parameters were recorded continuously during the whole experiment.
Monitoring rate (speed of paper) was at 5 mm/sec. At different times (stabilization, after injections, blood pressure changes, etc.,) the monitoring rate was changed to 25 mm/sec. In addition routinely, every 5 minutes the monitoring rate was changed to 25 mm/sec. for 15 sec. ECG recordings were obtained at the same times as hemodynamic measurements.
The test compound was administered by bolus injection intravenously at different doses (2,4,6,8 mg/Kg body weight). Each dose was administrated twice in the same manner. The second dose was given after the hemodynamic parameters were recovered (or stabilized) following the first injection.

[5] = 20 mg/Kg body weight i.v. bolus
[6] = 20 mg/Kg body weight i.v. bolus, 30 minutes after injection
[7] = 4 mg/Kg body weight, single dose
[8] = 8 mg/Kg body weight i.v. bolus, 30 minutes after first injection, FIG. 1A
[9] = 8 mg/Kg body weight i.v. bolus, 30 minutes after first injection, FIG. 1B
[10] = additional (second) bolus injection 8 mg/Kg, after 30 minutes
[11] = oral administration, 80 or 125 mg/Kg

With `C1=COC2(CC1)CCCCO2` (stereo not shown) [1,7-dioxaspiro[5.5]undec-2-ene] the “reduction in diastolic blood pressure (range)” value [1, 5] was 20-33%, the “reduction in systolic blood pressure (range)” value [1, 6] was 18-28% and the duration of effect ([1]; 20 mg/Kg i.v. bolus) was “about 30 minutes”. For the same compound, the “time of maximal effect after the injection” value (shortened to “time of maximal effect”) ([1]; 20 mg/Kg i.v. bolus) was 35 to 55 min.

In the case of `C1CCC2(CCCCO2)OC1` [1,7-dioxaspiro[5.5]undecane], the “cGMP formed % of control” value ([2]; 0.1 μM & Anantin (1 μM)) is reported as 253 % of control, the cGMP formed ([2]; 0.1 μM & Anantin (1 μM)) is reported as 1.32 ± 0.1 pmol/mg protein/10 min and the “cGMP formed % of control” value ([2]; 0.1 μM & L-NAME (100 μM)) is reported as 182 % of control. For the same compound, the cGMP formed ([2]; 0.1 μM & L-NAME (100 μM)) was 0.94 ± 0.15 pmol/mg protein/10 min, the “cGMP formed % of control” value ([2]; 0.1 μM) was 236 % of control and the cGMP formed ([2]; 0.1 μM) was 1.23 ± 0.1 pmol/mg protein/10 min. For the same compound, the “increase of cGMP concentration” value ([2]; 0.1 μM, versus control) was 2.36 times, the “elevation of cGMP levels in vitro” value [3] was “elevate cGMP levels” and the “ability to elevate cGMP levels in cultured smooth muscle cells” value [3] was “comparable ability to elevate cGMP levels”. The “effect on systemic blood pressure” value ([4]; 2 mg/Kg body weight, single and double dose) was “no effect”, the “hypotensive effect after second injection” value ([4]; 4 mg/Kg body weight, second injection of the same dose) was “more pronounced” and the “duration of hypotensive effect” value [4, 7] was “about 15 minutes”. For the same compound, the “effect on systemic blood pressure” value [4, 7] was “mild hypotensive effect”, the “reduction in systolic blood pressure (average)” value [4, 8] was 18.1% and the “reduction in systolic blood pressure (range)” value [4, 8] was 10-30%. For the same compound, the “reduction in diastolic blood pressure (average)” value [4, 9] was 20.5%, the “reduction in diastolic blood pressure (range)” value [4, 9] was 7-32% and the “reduction in diastolic blood pressure (average)” value [4, 10] was 36.5%. The “reduction in diastolic blood pressure (range)” value [4, 10] was 15-53%, the “reduction in systolic blood pressure (average)” value [4, 10] was 28.3% and the “reduction in systolic blood pressure (range)” value [4, 10] was 15-42%. The “effect on heart contractility (ECG monitoring)” value ([4]; single and double dosage of 2-8 mg/Kg body weight i.v. bolus) was “no effect”, the “reduction in diastolic blood pressure (range)” value [1, 5] was 15-28% and the “reduction in systolic blood pressure (range)” value [1, 6] was 20-30%. For the same compound, the duration of effect ([1]; 20 mg/Kg i.v. bolus) was at least 90 min, the “time of maximal effect” value ([1]; 20 mg/Kg i.v. bolus) was 110 to 120 min and the “reduction in systolic blood pressure (range)” value ([1]; oral administration, 80 mg/Kg body weight, after 150 minutes) was 15-28%. For the same compound, the “reduction in systolic blood pressure (range)” value ([1]; oral administration, 80 mg/Kg, after 150 minutes, stated under FIG. 5B (diastolic blood pressure)) was 20-30%, the “reduction in systolic blood pressure (range)” value ([1]; oral administration, 125 mg/Kg, 150 minutes post injection) was 30-45% and the “reduction in systolic blood pressure (range)” value ([1]; oral administration, 125 mg/Kg, after 150 minutes, stated under FIG. 5B (diastolic blood pressure)) was 40-53%. For the same compound, the duration of effect [1, 11] was “about an hour” and the “time of maximal effect” value [1, 11] was 150 to 220 min.

In the case of `C/C=C/C=C/CCCCCCCO` [E,E-8,10-Dodecadienol], the “elevation of cGMP levels in vitro” value [3] is given as “elevate cGMP levels”.

In the case of `COC(=O)[C@@H](N)CCCNC(=N)N[N+](=O)[O-]` [L-NAME, N^G-nitro-L-arginine methyl ester, reference compound], the “effect on 1,7-dioxaspiro[5.5]undecane-stimulated cGMP formation” value ([2]; tested together with 1,7-dioxaspiro[5.5]undecane 0.1 μM, Anantin 1 μM, L-NAME 100 μM) is reported as “attenuated”.

For `CCCCCC/C=C\CCCCCC=O` [Z-7-Tetradecenal], the “elevation of cGMP levels in vitro” value [3] is given as “elevate cGMP levels”.

In the case of `CCCC/C=C\CCCCCCCCCCOC(C)=O` [Z-11-Hexadecenyl-Acetate], the “elevation of cGMP levels in vitro” value [3] is listed as “elevate cGMP levels”.

In the case of `CCCC/C=C\CCCCCCCCCCCC=O` [Z-13-octadecenal, reference compound], the “elevation of cGMP levels in vitro” value [3] is given as “elevate cGMP levels”, the “ability to elevate cGMP levels in cultured smooth muscle cells” value [3] is given as “comparable ability to elevate cGMP levels” and the “effect on blood pressure” value ([4]; 4 mg/Kg body weight bolus, two animals, single and double dose) is given as “no reduction”. The “effect on blood pressure” value ([4]; 8 mg/Kg body weight bolus injection, five animals, FIG. 2) was “uncontrolled reduction in blood pressure in three out of five animals tested”, the “response of systemic blood pressure in the two surviving animals” value ([4]; 8 mg/Kg body weight, both injections) was “minimal or no response” and the “toxicity of intravenous administration (mortality)” value ([4]; intravenous administration, five animals) was “death of three out of five animals tested”.
